The nature of series [1]: Cytotoxicity assay in MT-4 cells. It is filed as cell-based, human. The following applies: human, uninfected MT-4 cells, 5 days incubation; read-out: CC50. In outline:
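For cytotoxicity, uninfected MT-4 cells were incubated with compounds 5 days at 37 °C, with 10 μM puromycin marking base cytotoxicity. Parallel plates used HIV-1 IIIB-infected (1:250 stock dilution) or mock cells with 5 μM AZT and no-drug controls. Read-out: CellTiter-Glo chemiluminescence.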

Series [2] relates to HIV-1 (IIIB). Put plainly: Antiviral assay in MT-4 cells (HIV MT-4 antiviral assay). The following applies: Human immunodeficiency virus 1, IIIB, MT4, 120 h, HIV-1 (IIIB) in MT-4 cells, 5 days incubation; read-out: EC50. It is filed as cell-based. In outline: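 Read-out is CellTiter-Glo chemiluminescence after 5-day culture at 37° C, giving protection of MT-4 cells from HIV-1 IIIB cytopathicity. Compounds tested in 1:3 dilution series in complete RPMI; controls were no drug, mock infection and 5 μM AZT.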

The test system of series [3] is pLai RLuc reporter virus. Put plainly: microbe, parasite or virus in culture. It is filed as cell-based, HIV. The following applies: Human immunodeficiency virus 1, 72 h. In outline: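 Read-out is Renilla luciferase after 72 h at 37 °C in MT-4 cells infected 2 h beforehand with pLai RLuc reporter virus; compounds diluted 1:3.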
Setting [4] is: read-out: Antiviral Serum Shift RLuc 50% HS, HS/CCM (RPMI media, 10% FBS, 50% HS, 1% P/S), 72-h incubation.
Where [5] appears, read: read-out: Antiviral Serum Shift RLuc CCM, CCM (RPMI media, 10% FBS, 1% P/S), 72-h incubation.

Like-named read-outs stand apart in the source and are kept apart here.

Usually CC50 stands for the concentration giving 50% cytotoxicity. Consider `C[C@H]1C(F)=CC[C@H]2CN1C(=O)c1c(O)c(=O)c(C(=O)NCc3c(F)cc(F)cc3F)cn12` [Example 154-1, (3S,7S)-4-fluoro-12-hydroxy-3-methyl-1,11-dioxo-N-(2,4,6-trifluorobenzyl)-1,6,7,11-tetrahydro-3H-2,7-methanopyrido[1,2-a][1,4]diazonine-10-carboxamide], for which the CC50 at 5 days in series [1] is 25700 nM. Also, the figures for the EC50 in series [2], in series [3] (setting [4]) and in series [3] (setting [5]) were 1.64 nM, 4.29 nM and 0.297 nM, respectively.

As to `C[C@@H]1N2C[C@H](CCC1(F)F)n1cc(C(=O)NCc3c(F)cc(F)cc3F)c(=O)c(O)c1C2=O` [Example 154-2, (3S,7S)-4,4-difluoro-12-hydroxy-3-methyl-1,11-dioxo-N-(2,4,6-trifluorobenzyl)-1,4,5,6,7,11-hexahydro-3H-2,7-methanopyrido[1,2-a][1,4]diazonine-10-carboxamide], the CC50 at 5 days in series [1] was 15200 nM. For the same compound, the EC50 in series [2] was 1.94 nM; in series [3] (setting [4]) it was 7.14 nM; in series [3] (setting [5]), 0.306 nM.

For `C[C@]12CC=CCN(C1)C(=O)c1c(O)c(=O)c(C(=O)NCc3c(F)cc(F)cc3F)cn12` [Example 156, (7S)-12-hydroxy-7-methyl-1,11-dioxo-N-(2,4,6-trifluorobenzyl)-1,6,7,11-tetrahydro-3H-2,7-methanopyrido[1,2-a][1,4]diazonine-10-carboxamide], in series [1], the half-maximal cytotoxic concentration (CC50) at 5 days came out at 13700 nM. The EC50 in series [2] turned out to be 1.75 nM; in series [3] (setting [4]), 41.3 nM; in series [3] (setting [5]), 0.187 nM.

As to `C[C@H]1CC[C@H](F)[C@H]2CN1C(=O)c1c(O)c(=O)c(C(=O)NCc3c(F)cc(F)cc3F)cn12` [Example 157, (3S,6S,7R)-6-fluoro-12-hydroxy-3-methyl-1,11-dioxo-N-(2,4,6-trifluorobenzyl)-1,4,5,6,7,11-hexahydro-3H-2,7-methanopyrido[1,2-a][1,4]diazonine-10-carboxamide], in series [1], the CC50 at 5 days is 23700 nM. Besides, the results for the EC50 in series [2], in series [3] (setting [4]) and in series [3] (setting [5]) were 5.36 nM, 5.75 nM and 1.61 nM, respectively.

Take `C[C@H]1[C@H](F)CC[C@H]2CN1C(=O)c1c(O)c(=O)c(C(=O)NCc3c(F)cc(F)cc3F)cn12` [Example 158, (3S,4R,7S)-4-fluoro-12-hydroxy-3-methyl-1,11-dioxo-N-(2,4,6-trifluorobenzyl)-1,4,5,6,7,11-hexahydro-3H-2,7-methanopyrido[1,2-a][1,4]diazonine-10-carboxamide]: in series [1], the CC50 at 5 days was determined as 8830 nM. Further, the results for the EC50 in series [2], in series [3] (setting [4]) and in series [3] (setting [5]) were 1.67 nM, 49.7 nM and 0.306 nM, respectively.

As for `O=C(NCc1cccc(F)c1F)c1cn2c(c(O)c1=O)C(=O)N1CCCC[C@H]2C1` [Example 160, (7S)—N-(2,3-difluorobenzyl)-12-hydroxy-1,11-dioxo-1,4,5,6,7,11-hexahydro-3H-2,7-methanopyrido[1,2-a][1,4]diazonine-10-carboxamide], in series [1], the CC50 at 5 days stood at 11400 nM. Also, the results for the EC50 in series [2], in series [3] (setting [4]) and in series [3] (setting [5]) were 1.52 nM, 1.19 nM and 0.368 nM, respectively.

For `O=C(NCc1ccc(F)c(F)c1F)c1cn2c(c(O)c1=O)C(=O)N1CCCC[C@H]2C1` [Example 161, (7S)-12-hydroxy-1,11-dioxo-N-(2,3,4-trifluorobenzyl)-1,4,5,6,7,11-hexahydro-3H-2,7-methanopyrido[1,2-a][1,4]diazonine-10-carboxamide], the CC50 at 5 days in series [1] was found to be 4630 nM. Besides, the results for the EC50 in series [2], in series [3] (setting [4]) and in series [3] (setting [5]) were 2.1 nM, 1.01 nM and 0.3 nM, respectively.

For the compound `O=C(NCc1ccc(F)cc1F)c1cn2c(c(O)c1=O)C(=O)N1CCCC[C@@]2(CF)C1` [Example 162-1, (7S)—N-(2,4-difluorobenzyl)-7-(fluoromethyl)-12-hydroxy-1,11-dioxo-1,4,5,6,7,11-hexahydro-3H-2,7-methanopyrido[1,2-a][1,4]diazonine-10-carboxamide], the CC50 at 5 days in series [1] came out at 16200 nM. For the same compound, the EC50 is 1.14 nM in series [2], 11.9 nM in series [3] (setting [4]) and 0.067 nM in series [3] (setting [5]).

In the case of `O=C(NCc1ccc(F)cc1F)c1cn2c(c(O)c1=O)C(=O)N1CCCC[C@]2(CF)C1` [Example 162-2, (7R)—N-(2,4-difluorobenzyl)-7-(fluoromethyl)-12-hydroxy-1,11-dioxo-1,4,5,6,7,11-hexahydro-3H-2,7-methanopyrido[1,2-a][1,4]diazonine-10-carboxamide], in series [1], the CC50 at 5 days is 14400 nM. Besides, the EC50 in series [2] stood at 2.58 nM; in series [3] (setting [4]) it was 15.3 nM; in series [3] (setting [5]), 0.118 nM.

With `O=C(NCc1c(F)cc(F)cc1F)c1cn2c(c(O)c1=O)C(=O)N1CCCC[C@@]2(CF)C1` [Example 163-1, (7S)—N-(2,4,6-trifluorobenzyl)-7-(fluoromethyl)-12-hydroxy-1,11-dioxo-1,4,5,6,7,11-hexahydro-3H-2,7-methanopyrido[1,2-a][1,4]diazonine-10-carboxamide], in series [1], the CC50 at 5 days came out at 20200 nM. For the same compound, the EC50 in series [2] was determined as 1.26 nM; in series [3] (setting [4]), 11.9 nM; in series [3] (setting [5]), 0.0674 nM.

Consider `O=C(NCc1c(F)cc(F)cc1F)c1cn2c(c(O)c1=O)C(=O)N1CCCC[C@]2(CF)C1` [Example 163-2, (7R)—N-(2,4,6-trifluorobenzyl)-7-(fluoromethyl)-12-hydroxy-1,11-dioxo-1,4,5,6,7,11-hexahydro-3H-2,7-methanopyrido[1,2-a][1,4]diazonine-10-carboxamide], for which the cytotoxic concentration (CC50) at 5 days in series [1] amounted to 13800 nM. The results for the EC50 in series [2], in series [3] (setting [4]) and in series [3] (setting [5]) were 2.29 nM, 15.3 nM and 0.118 nM, respectively.

Regarding `O=C(NCc1c(F)cc(F)cc1F)c1cn2c(c(O)c1=O)C(=O)N1C[C@@H]2CCC[C@@H]1CF` [Example 164, (3R,7S)-3-(fluoromethyl)-12-hydroxy-1,11-dioxo-N-(2,4,6-trifluorobenzyl)-1,4,5,6,7,11-hexahydro-3H-2,7-methanopyrido[1,2-a][1,4]diazonine-10-carboxamide], the CC50 at 5 days in series [1] was found to be 10400 nM. The EC50 stood at 1.21 nM in series [2], 13.3 nM in series [3] (setting [4]) and 0.333 nM in series [3] (setting [5]).

For the compound `O=C(NCc1ccc(F)cc1F)c1cn2c(c(O)c1=O)C(=O)N1C[C@@H]2CCC[C@@H]1CF` [Example 165, (3R,7S)—N-(2,4-difluorobenzyl)-3-(fluoromethyl)-12-hydroxy-1,11-dioxo-1,4,5,6,7,11-hexahydro-3H-2,7-methanopyrido[1,2-a][1,4]diazonine-10-carboxamide], the cytotoxic concentration (CC50) at 5 days in series [1] stood at 9610 nM. For the same compound, the values for the EC50 in series [2], in series [3] (setting [4]) and in series [3] (setting [5]) were 1.1 nM, 7.33 nM and 0.351 nM, respectively.

On to `O=C(NCc1ccc(F)cc1)c1cn2c(c(O)c1=O)C(=O)N1CCCC[C@H]2C1` [Example 166, (7S)—N-(4-fluorobenzyl)-12-hydroxy-1,11-dioxo-1,4,5,6,7,11-hexahydro-3H-2,7-methanopyrido[1,2-a][1,4]diazonine-10-carboxamide], for which the CC50 at 5 days in series [1] is 15600 nM. The EC50 in series [2] was found to be 2.5 nM; in series [3] (setting [4]), 1.62 nM; in series [3] (setting [5]), 0.583 nM.

As for `C[C@]12CC=CCN(C1)C(=O)c1c(O)c(=O)c(C(=O)NCc3ccc(F)cc3F)cn12` [Example 168, (7S)—N-(2,4-difluorobenzyl)-12-hydroxy-7-methyl-1,11-dioxo-1,6,7,11-tetrahydro-3H-2,7-methanopyrido[1,2-a][1,4]diazonine-10-carboxamide], in series [1], the CC50 at 5 days was 13700 nM. Also, the values for the EC50 in series [2], in series [3] (setting [4]) and in series [3] (setting [5]) were 1.75 nM, 41.3 nM and 0.187 nM, respectively.

For the compound `O=C(NCc1ccc(F)cc1F)c1cn2c(c(O)c1=O)C(=O)N1CCC=C[C@H]2C1` [Example 169, (7S)—N-(2,4-difluorobenzyl)-12-hydroxy-1,11-dioxo-1,4,7,11-tetrahydro-3H-2,7-methanopyrido[1,2-a][1,4]diazonine-10-carboxamide], in series [1], the CC50 at 5 days is 11800 nM. For the same compound, the EC50 in series [2] amounted to 1.4 nM; in series [3] (setting [4]), 2.89 nM; in series [3] (setting [5]), 0.322 nM.

For `O=C(NCc1ccc(F)c(Cl)c1F)c1cn2c(c(O)c1=O)C(=O)N1CCC=C[C@H]2C1` [Example 171, (7S)—N-(3-chloro-2,4-difluorobenzyl)-12-hydroxy-1,11-dioxo-1,4,7,11-tetrahydro-3H-2,7-methanopyrido[1,2-a][1,4]diazonine-10-carboxamide], in series [1], the CC50 at 5 days stood at 4190 nM. Further, the EC50 came out at 0.962 nM in series [2], 8.5 nM in series [3] (setting [4]) and 0.387 nM in series [3] (setting [5]).

In the case of `O=C(NCc1ccc(F)cc1F)c1cn2c(c(O)c1=O)C(=O)N1CCC[C@@H](F)[C@@H]2C1` [Example 172-1, (6R,7S)—N-(2,4-difluorobenzyl)-6-fluoro-12-hydroxy-1,11-dioxo-1,4,5,6,7,11-hexahydro-3H-2,7-methanopyrido[1,2-a][1,4]diazonine-10-carboxamide], the CC50 at 5 days in series [1] came out at 15600 nM. Besides, the EC50 worked out at 2.4 nM in series [2], 42.7 nM in series [3] (setting [4]) and 0.689 nM in series [3] (setting [5]).

For the origin of these results see patent publication US12227520B2 (priority 2019, dated 2025).
